Experimental data: patent publication US11472788B2, “Benzoimidazoles as selective inhibitors of indoleamine 2,3-dioxygenases” (BEIGENE, LTD., priority 2017, dated 2022)

Target: cellular IDO1 in HeLa cells (Homo sapiens (Human), UniProt P14902)
Assay: HeLa Cell-Based IDO1 Kyn (Kynurenine) Production Assay
Conditions: IFN-γ induced IDO1, 48 hours incubation, Kyn absorbance at 480 nm
Method: HeLa Cell-Based IDO1 Kyn (Kynurenine) Production Assay:
The inhibitory activity of IDO1 inhibitors is determined by using a colorimetric reaction to measure Kyn generated from L-Trp (L-Tryptophon) oxidation by cellular IDO1 in HeLa cells after induction of IDO1 expression by IFN-γ.
Hela cells were obtained from the American Type Culture Collection and recovered in 10% FBS-containing phenol red-free DMEM medium. Cells were plated onto a 96-well plate (100 μl/well) at 8000 cells per well and kept at 37° C. in a humidified incubator supplied with 5% CO2. 4 hours later, Human recombinant IFN-γ (8901SC, CST) was added to cells (final concentration 100 ng/mL) to stimulate endogenous IDOL. Compounds at different concentrations diluted in dimethylsulfoxide (DMSO) were added simultaneously with IFN-γ and 0.4 mM L-Trp. Cells were kept at 37° C. in a humidified incubator supplied with 5% CO2. After 48 hours of incubation, 100 μl supernatant from each well was removed to a new plate. The protein in the medium was precipitated with the addition of 8 μl 6N trichloroacetic acid. The plate was incubated at 60° C. for 30 minutes and then centrifugation at 2500 rpm for 10 minutes to remove sediments. 80 μl supernatants were carefully removed to a new clean plate and added with an equal volume of 2% 4-(Dimethylamino)benzaldehyde (D2004, sigma) dissolved in glacial acetic acid. The absorbance at 480 nm wavelength derived from Kyn was measured using a PHERAstar FS plate reader (BMG LABTECH). The IC5C for each compound was derived from fitting the dose-response data to the four-parameter logistic model by using XLfit software (IDBS).

cellular IDO1 in HeLa cells, sequence (P14902 whole entry): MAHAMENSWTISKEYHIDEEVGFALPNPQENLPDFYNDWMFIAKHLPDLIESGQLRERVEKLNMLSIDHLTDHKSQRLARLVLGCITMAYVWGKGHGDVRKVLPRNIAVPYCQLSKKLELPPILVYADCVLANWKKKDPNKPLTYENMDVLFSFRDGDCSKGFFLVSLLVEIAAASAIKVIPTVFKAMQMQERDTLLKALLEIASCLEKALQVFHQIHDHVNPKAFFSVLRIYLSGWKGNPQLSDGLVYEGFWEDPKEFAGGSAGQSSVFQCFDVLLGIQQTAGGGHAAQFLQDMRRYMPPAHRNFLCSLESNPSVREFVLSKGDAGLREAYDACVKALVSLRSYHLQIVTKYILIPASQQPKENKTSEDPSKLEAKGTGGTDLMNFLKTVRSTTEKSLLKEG

EC50 [nM]	SMILES
150	Fc1ccc2nccc(C3CCN(Cc4nc5cc(Cl)ccc5[nH]4)CC3)c2c1 [Example A39, 4-(1-((5-chloro-1H-benzo[d]imidazol-2-yl)methyl)piperidin-4-yl)-6-fluoroquinoline]
50	C[C@H](c1nc2cc(Cl)c(F)cc2[nH]1)[C@H]1CC[C@@H](c2ccnc3ccc(F)cc32)CC1 [Example B2b, 4-((1S,4s)-4-((R)-1-(5-chloro-6-fluoro-1H-benzo[d]imidazol-2-yl)ethyl)cyclohexyl)-6-fluoroquinoline]
1.3	COC(=O)c1ccc2[nH]c(C(C)C3CCC(c4ccnc5ccc(F)cc45)CC3)nc2c1 (stereo not drawn) [Example B3, methyl 2-(1-(4-(6-fluoroquinolin-4-yl)cyclohexyl)ethyl)-1H-benzo[d]imidazole-5-carboxylate]
1.4	C[C@@H](c1nc2c(F)cc(F)c(F)c2[nH]1)[C@H]1CC[C@@H](c2ccnc3ccc(F)cc32)CC1 [Example B5, 6-fluoro-4-((1S,4s)-4-((R)-1-(4,6,7-trifluoro-1H-benzo[d]imidazol-2-yl)ethyl)cyclohexyl)quinoline]
6.9	C[C@H](c1nc2ccc(C#N)cc2[nH]1)[C@H]1CC[C@@H](c2ccnc3ccc(F)cc32)CC1 [Example B8, 2-((S)-1-((1s,4R)-4-(6-fluoroquinolin-4-yl)cyclohexyl)ethyl)-1H-benzo[d]imidazole-6-carbonitrile]
8.79	C[C@@H](c1nc2c(Cl)c(F)c(F)cc2[nH]1)[C@H]1CC[C@@H](c2ccnc3ccc(F)cc32)CC1 [Example B125, 4-((1S,4s)-4-((R)-1-(4-chloro-5,6-difluoro-1H-benzo[d]imidazol-2-yl)ethyl)cyclohexyl)-6-fluoroquinoline]
82.3	CC(c1nc2cc3c(=O)[nH]cnc3cc2[nH]1)[C@H]1CC[C@@H](c2ccnc3ccc(F)cc32)CC1 (stereo partly drawn) [Example B151, 2-(1-((1s,4s)-4-(6-fluoroquinolin-4-yl)cyclohexyl)ethyl)-3,7-dihydro-8H-imidazo[4,5-g]quinazolin-8-one]
3.8	C[C@@H](c1nc2cc(-c3ncccn3)ccc2[nH]1)[C@H]1CC[C@@H](c2ccnc3ccc(F)cc32)CC1 [Example B157, 6-fluoro-4-((1S,4s)-4-((R)-1-(5-(pyrimidin-2-yl)-1H-benzo[d]imidazol-2-yl)ethyl)cyclohexyl)quinoline]
67.7	CC(c1nc2cc3c(cc2[nH]1)CCC(=O)N3)[C@H]1CC[C@@H](c2ccnc3ccc(F)cc32)CC1 (stereo partly drawn) [Example B159, 2-(1-((1s,4s)-4-(6-fluoroquinolin-4-yl)cyclohexyl)ethyl)-1,5,7,8-tetrahydro-6H-imidazo[4,5-g]quinolin-6-one]
46	CC(c1nc2cc(C(=O)N(C)C)ccc2[nH]1)[C@H]1CC[C@@H](c2ccnc3ccc(F)cc32)CC1 (stereo partly drawn) [Example B160, 2-(1-((1s,4s)-4-(6-fluoroquinolin-4-yl)cyclohexyl)ethyl)-N,N-dimethyl-1H-benzo[d]imidazole-5-carboxamide]
5.8	CC(c1nc2ccc(C(=O)NC3CCC3)cc2[nH]1)[C@H]1CC[C@@H](c2ccnc3ccc(F)cc32)CC1 (stereo partly drawn) [Example B164, N-cyclobutyl-2-(1-((1s,4s)-4-(6-fluoroquinolin-4-yl)cyclohexyl)ethyl)-1H-benzo[d]imidazole-6-carboxamide]
18.8	CC(c1nc2ccc(S(C)(=O)=O)cc2[nH]1)[C@H]1CC[C@@H](c2ccnc3ccc(F)cc32)CC1 (stereo partly drawn) [Example B167, 6-fluoro-4-((1s,4s)-4-(1-(6-(methylsulfonyl)-1H-benzo[d]imidazol-2-yl)ethyl)cyclohexyl)quinoline]

The remaining lines, values behind:

SMILES	EC50 [nM]
C[C@H](c1nc2cc(F)c(F)cc2[nH]1)[C@H]1CC[C@@H](c2ccnc3ccc(F)cc32)CC1 [Example B1b, 4-((1R,4s)-4-((S)-1-(5,6-difluoro-1H-benzo[d]imidazol-2-yl)ethyl)cyclohexyl)-6-fluoroquinoline]	59
C[C@@H](c1nc2cc(Cl)c(F)cc2[nH]1)[C@H]1CC[C@@H](c2ccnc3ccc(F)cc32)CC1 [Example B2, 4-((1S,4s)-4-((R)-1-(5-chloro-6-fluoro-1H-benzo[d]imidazol-2-yl)ethyl)cyclohexyl)-6-fluoroquinoline]	0.95
C[C@@H](c1nc2cc(Cl)c(F)cc2[nH]1)[C@H]1CC[C@@H](c2ccnc3ccc(F)cc32)CC1 [Example B2a, 4-((1R,4s)-4-((S)-1-(5-chloro-6-fluoro-1H-benzo[d]imidazol-2-yl)ethyl)cyclohexyl)-6-fluoroquinoline]	0.38
COC(=O)c1ccc2[nH]c([C@@H](C)[C@H]3CC[C@@H](c4ccnc5ccc(F)cc54)CC3)nc2c1 [Example B3a, methyl 2-((S)-1-((1s,4R)-4-(6-fluoroquinolin-4-yl)cyclohexyl)ethyl)-1H-benzo[d]imidazole-5-carboxylate]	0.55
COC(=O)c1ccc2[nH]c([C@H](C)[C@H]3CC[C@@H](c4ccnc5ccc(F)cc54)CC3)nc2c1 [Example B3b, methyl 2-((R)-1-((1s,4S)-4-(6-fluoroquinolin-4-yl)cyclohexyl)ethyl)-1H-benzo[d]imidazole-5-carboxylate]	81
C[C@@H](c1nc2cc(C(F)(F)F)ccc2[nH]1)[C@H]1CC[C@@H](c2ccnc3ccc(F)cc32)CC1 [Example B4, 6-fluoro-4-((1S,4s)-4-((R)-1-(5-(trifluoromethyl)-1H-benzo[d]imidazol-2-yl)ethyl)cyclohexyl)quinoline]	1.4
C[C@@H](c1nc2cc(C(=O)N(C)C)ccc2[nH]1)[C@H]1CC[C@@H](c2ccnc3ccc(F)cc32)CC1 [Example B12, 2-((R)-1-((1s,4S)-4-(6-fluoroquinolin-4-yl)cyclohexyl)ethyl)-N,N-dimethyl-1H-benzo[d]imidazole-5-carboxamide]	46
CCOC(=O)c1ccc2[nH]c([C@H](C)[C@H]3CC[C@@H](c4ccnc5ccc(F)cc54)CC3)nc2c1 [Example B17, ethyl 2-((R)-1-((1s,4S)-4-(6-fluoroquinolin-4-yl)cyclohexyl)ethyl)-1H-benzo[d]imidazole-5-carboxylate]	0.58
C[C@H](c1nc2ccc(Cl)cc2[nH]1)C1CCC(c2cnc3ccccc3c2)CC1 (stereo partly drawn) [Example B25a, (S)-3-(4-(1-(6-chloro-1H-benzo[d]imidazol-2-yl)ethyl)cyclohexyl)quinoline]	5.1
C[C@@H](c1nc2ccc(Cl)cc2[nH]1)C1CCC(c2cnc3ccccc3c2)CC1 (stereo partly drawn) [Example B25b, (R)-3-(4-(1-(6-chloro-1H-benzo[d]imidazol-2-yl)ethyl)cyclohexyl)quinoline]	3.1
C[C@@H](c1nc2c(Cl)c(F)cc(F)c2[nH]1)[C@H]1CC[C@@H](c2ccnc3ccc(F)cc32)CC1 [Example B123, 4-((1S,4s)-4-((R)-1-(4-chloro-5,7-difluoro-1H-benzo[d]imidazol-2-yl)ethyl)cyclohexyl)-6-fluoroquinoline]	6.79
C[C@@H](c1nc2c(F)c(F)cc(Cl)c2[nH]1)[C@H]1CC[C@@H](c2ccnc3ccc(F)cc32)CC1 [Example B124, 4-((1S,4s)-4-((R)-1-(7-chloro-4,5-difluoro-1H-benzo[d]imidazol-2-yl)ethyl)cyclohexyl)-6-fluoroquinoline]	16.4
C[C@@H](c1nc2ccc(NS(C)(=O)=O)cc2[nH]1)[C@H]1CC[C@@H](c2ccnc3ccc(F)cc32)CC1 [Example B136, N-(2-((R)-1-((1s,4S)-4-(6-fluoroquinolin-4-yl)cyclohexyl)ethyl)-1H-benzo[d]imidazol-6-yl)methanesulfonamide]	296
C[C@@H](c1nc2ccc(S(C)(=O)=O)cc2[nH]1)[C@H]1CC[C@@H](c2ccnc3ccc(F)cc32)CC1 [Example B138, 6-fluoro-4-((1S,4s)-4-((R)-1-(6-(methylsulfonyl)-1H-benzo[d]imidazol-2-yl)ethyl)cyclohexyl)quinoline]	18.8
COC(=O)c1cc(C)c2nc([C@H](C)[C@H]3CC[C@@H](c4ccnc5ccc(F)cc54)CC3)[nH]c2c1 [Example B141, methyl 2-((R)-1-((1s,4S)-4-(6-fluoroquinolin-4-yl)cyclohexyl)ethyl)-4-methyl-1H-benzo[d]imidazole-6-carboxylate]	6.89
CC(c1nc2ccc(C(=O)O)cc2[nH]1)[C@H]1CC[C@@H](c2ccnc3ccc(F)cc32)CC1 (stereo partly drawn) [Example B163, 2-(1-((1s,4s)-4-(6-fluoroquinolin-4-yl)cyclohexyl)ethyl)-1H-benzo[d]imidazole-6-carboxylic acid]	567
CC(c1nc2cc3ccccc3cc2[nH]1)[C@H]1CC[C@@H](c2ccnc3ccc(F)cc32)CC1 (stereo partly drawn) [Example B166, 2-(1-((1s,4s)-4-(6-fluoroquinolin-4-yl)cyclohexyl)ethyl)-1H-naphtho[2,3-d]imidazole]	251
CC(c1nc2ccc(N)cc2[nH]1)[C@H]1CC[C@@H](c2ccnc3ccc(F)cc32)CC1 (stereo partly drawn) [Example B169, 2-(1-((1s,4s)-4-(6-fluoroquinolin-4-yl)cyclohexyl)ethyl)-1H-benzo[d]imidazol-6-amine]	19.6
